pEC50: −log10 of the molar value. Read-outs that look alike come from different tables or passages of the source. Bounds are passed on as bounds.

In data set [1] the test system is schistosomula and adult schistosomes. The arrangement: method as in PMID 31730617. The note with it: SGC collection tested by the authors' laboratory; cited from earlier work.
The next data set deals with S. mansoni schistosomula. Put plainly: Schistosomula screens (Roboworm, phenotype and motility). The format is cell-based, Schistosoma mansoni. The note with it: 72 h; for pEC50: Schistosoma mansoni. As to the method: Anthelmintic activity on the schistosomula stage of S. mansoni was evaluated using Roboworm, an integrated high-throughput, high content image analysis platform originally developed by Paveley et al. and subsequently used by our research group as previously described, [28], [50], [51]. Alternatively, the computer application Worminator can be used to assess motion of microscopic parasites such as the schistosomula stage of S. mansoni. Compounds (as single concentration or two-fold titrations) were prepared for screening in a 384-well plate (PerkinElmer, MA, USA), where solutions (1.6 mM, 0.5 μl) were wet stamped using the Biomek NX ^P liquid handling platform into Basch medium (20 μl). Negative (0.625% DMSO) and positive (Auranofin - AUR - at 10 µM final concentration in 0.625% DMSO) control wells were similarly prepared. Mechanically transformed schistosomula (about 120 parasites in 60 μl of Basch medium) were distributed into each treated well using a WellMate (Thermo Scientific, Loughborough, UK). Schistosomula/compound co-cultures were then incubated at 37°C for 72 h in a humidified atmosphere containing 5% CO 2. At 72 h, parasite/compound co-cultures were resuspended and tissue culture plates were imaged under the same conditions (37°C for 72 h in a humidified atmosphere containing 5% CO 2) using an ImageXpressXL high content imager (Molecular Devices, UK) with subsequent images processed for phenotype and motility as previously reported. Plate analysis returned a phenotype and motility score for each well and any scores below -0.15 and -0.35 (defined threshold anti-schistosomula values for phenotype and motility scores, respectively) defined a condition displaying anti-schistosomula activity. Compound screens were assessed based on the Z´ values (derived from the means and standard deviations of positive and negative controls) and those equal to or above 0.3 for both phenotype and motility were considered successful.
Phenotype and motility scores of each titration were used to generate dose response curves in GraphPad Prism 7.02 based on the corrected average score of the three replicates for each data point.

The subject of another data set is S. mansoni miracidia. Kind of data set: Miracidia to sporocyst transformation screens. The format is cell-based, Schistosoma mansoni. The note with it: 10 µM, 48 h. How it is done:
Following hatching of S. mansoni eggs, miracidia were incubated on ice for 15 min and then centrifuged at 700 x g for 5 min at 4°C. The miracidia pellet was then re-suspended in 5 ml of Chernin's balanced salt solution (CBSS), subjected to pelleting and two subsequent washes (all at 700 x g for 5 min at 4°C). Afterwards, the supernatant was carefully removed with a serological pipette and the miracidia-enriched pellet was resuspended with CBSS supplemented with 1 mg/ml each of glucose and trehalose and 500 µl of Penicillin-Streptomycin (containing 10,000 units penicillin and 10 mg streptomycin/ml, P4333, Sigma-Aldrich). In preparation for the screens, CBSS (250 µl) was aliquoted to each well of a 24-well plate followed by addition of each compound in DMSO (1 mM concentration in 1% DMSO) or DMSO alone (1%, negative control). Next, approximately 20-25 miracidia (in 250 µl of CBSS) were aliquoted to each well. […] Both preliminary and secondary screens were performed in duplicate on two separate occasions (two independent biological replicates). Miracidia were incubated for 48 h at 26°C before being evaluated using an Olympus inverted light microscope for morphological and behavioural changes differing from the control wells. Dead, partially transformed and fully transformed miracidia were enumerated in the DMSO control and the assay plates as previously described, [23], [59]. […] Absence of ciliated plates attached to the surface of the parasite and formation of sporocyst tegument defined the so-called “fully transformed” parasites.

A short description of data set [2]: MTT cytotoxicity assay on HepG2 cells. The note with it: human, HepG2 cells, MTT, 24 h; three dose response titrations (200 - 1 µM). It is filed as cell-based, Human. As to the method: Compound cytotoxicity on Human Hepatocyte Carcinoma (HepG2) cells (85011430, Sigma Aldrich) was elucidated by the MTT (3-(4,5-dimethylthiazol-2-yl)-2,5-diphenyltetrazolium bromide) tetrazolium reduction assay as previously described, [28], [50]. Briefly, HepG2 cells were seeded at a density of 20,000 per well in 96-well black, clear bottom falcon plate in modified BME medium (50 μl; containing 1% antibiotic/mycotic (Sigma-Aldrich, Gillingham, UK), 1% 200 mM L-glutammine (Gibco, Paisley, UK), 1% MEM non-essential amino acid solution (Gibco, Paisley, UK), and 10% fetal bovine serum (Gibco, Paisley, UK)). HepG2 plates seeded for cytotoxicity screens were treated with compounds 24 h post-seeding. Each compound was tested at 200, 100, 75, 50, 20, 10 and 1 µM; each concentration was assayed in triplicate. Blank wells (no cells), as well as positive (1% v/v Triton X-100, X100, Sigma-Aldrich) and negative (1.25% v/v DMSO or media only) controls, were included in each plate. After addition of compounds, each plate was then incubated for a further 20 h before application of MTT reagent for assessment of compound cytotoxicity (4 h incubation with MTT for a total 24 h cell-drug incubation). The absorbance reading at 570 nm was measured with a POLARstar Omega (BMG Labtech, UK) microtiter plate reader. Dose response curves were generated in GraphPad Prism 7.02 based on the corrected average absorbance of the three replicates for each concentration point.
Background: Tetrazolium assays rely on reduction of a dye to a coloured formazan, in cell work by metabolically active cells.

Another data set deals with S. mansoni adult worms. Kind of data set: Adult worm screens (WormassayGP2 motility, egg count). It is filed as cell-based, Schistosoma mansoni. The note with it: 12.5 µM, 72 h. As to the method: For compound screening, adult worms (three worm pairs/well for compound 7 and the hit compounds of set two; one worm pair/well for the hit compounds of set three) were transferred into wells of a 48-well tissue culture plate containing 1 ml of adult worm media. Adult worms were treated with compounds previously identified as hits at 10 µM on 72 h cultured schistosomula. Worms were dosed with an appropriate volume of 10 mM stock solution of each compound (in DMSO) to have a concentration range of 50 – 6.25 µM (up to 0.5% DMSO, primary screen of compound 7). Secondary screens were performed on the structural analogues of compound 7 (only the schistosomula hits at 10 µM) at a single concentration (12.5 µM) and compared to the same concentration of the parental compound (included in the screen as reference). DMSO (0.5%) and praziquantel (10 µM in 0.5% DMSO) were also included as negative and positive control treatments (both primary and secondary screens). Treated adult worms were incubated for 72 h in a humidified environment at 5% CO 2 at 37°C. Parasite motility after drug treatment was assessed by a digital image processing-based system (WormassayGP2, see Software availability) modified after Wormassay, [56], [57]. Egg production was assessed according to the methodology described by Edwards et al..

The mark [3] stands for this setting: average of phenotype and motility metrics, read-out: Schistosomula EC50 Average.
Setting [4] is: dose response titrations (10 - 0.625 µM), read-out: Schistosomula EC50 Motility.
Setting [5] is: dose response titrations (10 - 0.625 µM), read-out: Schistosomula EC50 Phenotype.

Consider `CC(C)Oc1ccc(-c2c[nH]cc2CN(C)CCN)cc1` [MS023], for which, in data set [1], the “activity on schistosomula and adult schistosomes” value is recorded as “potent activities”.
Consider `Clc1cc2c(NC3CCCC3)nnc(-c3ccncc3)c2cc1Cl` [Compound A-196], for which the “activity on schistosomula and adult schistosomes” value in data set [1] is recorded as “potent activities”.
Turning to `Cc1ccccc1Nc1nc(N2CCNCC2)nc(N2CCOCC2)n1` [Compound 14], the “anti-schistosomula activity (hit on phenotype and motility)” value (“anti-schistosomula activity” for short) in the data set on S. mansoni schistosomula (50 µM) was “only active at 50 µM”. Besides, the pEC50 with S. mansoni schistosomula (setting [3]), with S. mansoni schistosomula (setting [4]) and in the data set on S. mansoni schistosomula (setting [5]) was < 5.00 in each case.
Regarding `Cc1ccc(Nc2nc(N3CCNCC3)nc(N3CCOCC3)n2)cc1` [Compound 15], in the data set on S. mansoni miracidia, the effect on miracidia entry is “all readily killed miracidia except for compounds 15 and 16”. Also, in data set [2], half-maximal cytotoxicity (CC50 at 24 h) was put at 23.9 µM. Besides, the pEC50 in the data set with S. mansoni schistosomula (setting [3]) was 5.84; with S. mansoni schistosomula (setting [4]), 5.75; with S. mansoni schistosomula (setting [5]), 5.96. Moreover, the “adult worm egg production” value with S. mansoni adult worms is “reducing egg production similarly to compound 7”. For the same compound, in the data set on S. mansoni adult worms, the “adult worm motility compared to compound 7” value is on record as “more potent than the original hit compound”.
As to `C1CCN(c2nc(N3CCCC3)nc(N3CCNCC3)n2)C1` [Compound 17], the “anti-schistosomula activity” value in the data set on S. mansoni schistosomula (50 µM) is “active at the highest concentration”. The pEC50 in the data set on S. mansoni schistosomula (setting [4]) and in the data set with S. mansoni schistosomula (setting [5]) was < 5.00 in each case.
Consider `c1ccc(CNc2nc(Nc3ccccc3)nc(N3CCNCC3)n2)cc1` [Compound 12], for which the effect on miracidia result with S. mansoni miracidia is given as “readily killed miracidia”. This compound also had a CC50 at 24 h in data set [2] of 11 µM. Also, the pEC50 was 5.35 in the data set with S. mansoni schistosomula (setting [3]), 5.36 in the data set with S. mansoni schistosomula (setting [4]) and 5.34 in the data set with S. mansoni schistosomula (setting [5]). In addition, the “adult worm egg production” value in the data set on S. mansoni adult worms is “reducing egg production similarly to compound 7”. The “adult worm motility compared to compound 7” value in the data set on S. mansoni adult worms is given as “more potent than the original hit compound”.
As to `COc1cc(C(=O)N2CC[C@@H](O)[C@@H](N)C2)cc2nc(-c3cc4ccccc4n3CC3CC3)n(C)c12` [GSK484], the “activity on schistosomula and adult schistosomes” value in data set [1] is listed as “potent activities”.
On to `CCCc1cc(C)[nH]c(=O)c1CNC(=O)c1cc(-c2ccnc(N3CCN(C)CC3)c2)cc2c1cnn2C(C)C` [GSK343], for which, in data set [1], the “activity on schistosomula and adult schistosomes” value was “potent activities”.
For the compound `c1ccc2sc(N3CCN(c4nc(N5CCOCC5)nc(N5CCOCC5)n4)CC3)nc2c1` [Compound 11], the pEC50 with S. mansoni schistosomula (setting [3]), in the data set with S. mansoni schistosomula (setting [4]) and with S. mansoni schistosomula (setting [5]) was < 4.30 in each case.
Turning to `CCN(C(=O)CO)[C@H]1CN(/C(=N\C#N)Nc2cccc(OC(F)F)c2)N=C1c1ccc(Cl)c(Cl)c1` [BAY-598], the “activity on schistosomula and adult schistosomes” value in data set [1] is recorded as “potent activities”.
With `C1CN(c2nc(N3CCOCC3)nc(N3CCOCC3)n2)CCN1` [Compound 10], the pEC50 in the data set on S. mansoni schistosomula (setting [3]), with S. mansoni schistosomula (setting [4]) and in the data set with S. mansoni schistosomula (setting [5]) was < 4.30 throughout.
In turn, `c1ccc(Nc2nc(N3CCNCC3)nc(N3CCOCC3)n2)cc1` [Compound 22] came in with a CC50 at 24 h in data set [2] of 93.5 µM. For the same compound, the “anti-schistosomula activity” value in the data set on S. mansoni schistosomula (50 µM) is recorded as “active at the highest concentration”. Further, the pEC50 with S. mansoni schistosomula (setting [4]) is 5.79; in the data set on S. mansoni schistosomula (setting [5]) it was 5.68.
As for `O=S(=O)(c1ccc(Cl)cc1)N1CCN(c2nc(N3CCCCC3)nc(N3CCCCC3)n2)CC1` [Compound 18], the pEC50 with S. mansoni schistosomula (setting [3]), in the data set on S. mansoni schistosomula (setting [4]) and in the data set with S. mansoni schistosomula (setting [5]) was < 4.30 in each case.
For `c1ccc(Nc2nc(Nc3ccccc3)nc(N3CCNCC3)n2)cc1` [Compound 8], in the data set with S. mansoni miracidia, the effect on miracidia entry is “readily killed miracidia”. Further, in data set [2], it took 14.9 µM to reach half-maximal cytotoxicity (CC50 at 24 h). Also, the pEC50 was 5.39 with S. mansoni schistosomula (setting [3]), 5.30 with S. mansoni schistosomula (setting [4]) and 5.49 in the data set on S. mansoni schistosomula (setting [5]). In addition, the “adult worm egg production” value in the data set on S. mansoni adult worms is listed as “reducing egg production similarly to compound 7”. In addition, the “adult worm motility compared to compound 7” value in the data set with S. mansoni adult worms is listed as “more potent than the original hit compound”.
As for `O=[N+]([O-])c1ccc2nc(N3CCN(c4nc(N5CCOCC5)nc(N5CCOCC5)n4)CC3)sc2c1` [Compound 21], the pEC50 in the data set with S. mansoni schistosomula (setting [3]), with S. mansoni schistosomula (setting [4]) and with S. mansoni schistosomula (setting [5]) was < 4.30 in each case.
Turning to `Cc1cn(CCN2CCN(c3ccccc3-c3cc(C#N)cc(C(=O)NCCCN4CCCC4)c3)CC2)c2ccccc12` [LLY-507], the “activity on schistosomula and adult schistosomes” value in data set [1] is “potent activities”.
`CCOC(=O)CCNc1cc(N2CCc3ccccc3CC2)nc(-c2ccccn2)n1` [GSK-J4]: in data set [1], the “activity on schistosomula and adult schistosomes” value was “potent activities”.
Consider `O=C(c1ccc(Cl)cc1)N1CCN(c2nc(N3CCCCC3)nc(N3CCCCC3)n2)CC1` [Compound 19], for which the pEC50 in the data set with S. mansoni schistosomula (setting [3]), in the data set on S. mansoni schistosomula (setting [4]) and in the data set with S. mansoni schistosomula (setting [5]) was < 4.30 in each case.
As for `CCCc1cc(C)[nH]c(=O)c1CNC(=O)c1cc(-c2ccc(N3CCN(C(C)C)CC3)nc2)cc2c1cnn2C(C)C` [UNC1999], the “activity on schistosomula and adult schistosomes” value in data set [1] is given as “potent activities”.
For the compound `O=C1CNC(=O)/C1=C\Nc1ccc(O)cc1` [Compound 4], in the data set with S. mansoni schistosomula (50 µM), the “anti-schistosomula activity” value is recorded as “showed anti-schistosomal activity”; the schistosomula phenotype induced result is “elongated phenotype”.
`Cc1ccccc1Nc1nc(Nc2ccccc2C)nc(N2CCNCC2)n1` [Compound 13]: the effect on miracidia entry in the data set on S. mansoni miracidia is “readily killed miracidia”. Besides, the midpoint of cytotoxicity in data set [2], the CC50 at 24 h, lay at 17.9 µM. Moreover, the pEC50 in the data set on S. mansoni schistosomula (setting [3]) was 5.32; with S. mansoni schistosomula (setting [4]), 5.32; in the data set with S. mansoni schistosomula (setting [5]), 5.33.

As usually defined, the pEC50 is the EC50 on a negative log10 scale, so that one unit is a factor of ten. As a reminder, the CC50 is the concentration that lowers cell viability or growth by half.
